Read-outs that look alike come from different tables or passages of the source.
Columns and labels:
[1] = target: T1, human H3 receptor (Homo sapiens, UniProt Q9Y5N1); assay: Human H3 radioligand binding ([3H]-N-alpha-methylhistamine, SPA)
T1 construct: expressed in transfected cells
In short: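 SPA competition binding on membranes from CHO cells stably expressing human H3 receptor (10 μg protein/well) with ~1 nM [3H]-N-alpha-methylhistamine and compound at 0.01 nM-30 μM. Incubation 4 h at room temperature in 50 mM Tris-HCl pH 7.4, 5 mM MgCl2, 0.1% BSA; non-specific binding defined with 10 μM clobenpropit.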

[2] = target: T2, rat histamine H3 receptor (Rattus norvegicus, UniProt Q9QYN8); assay: Rat H3 radioligand binding ([3H]-N-alpha-methylhistamine, SPA)
T2 construct: encoding the entire 445-amino-acid rat histamine H3 receptor; expressed in transfected cells; membrane preparation
T2 sequence (Q9QYN8 whole entry): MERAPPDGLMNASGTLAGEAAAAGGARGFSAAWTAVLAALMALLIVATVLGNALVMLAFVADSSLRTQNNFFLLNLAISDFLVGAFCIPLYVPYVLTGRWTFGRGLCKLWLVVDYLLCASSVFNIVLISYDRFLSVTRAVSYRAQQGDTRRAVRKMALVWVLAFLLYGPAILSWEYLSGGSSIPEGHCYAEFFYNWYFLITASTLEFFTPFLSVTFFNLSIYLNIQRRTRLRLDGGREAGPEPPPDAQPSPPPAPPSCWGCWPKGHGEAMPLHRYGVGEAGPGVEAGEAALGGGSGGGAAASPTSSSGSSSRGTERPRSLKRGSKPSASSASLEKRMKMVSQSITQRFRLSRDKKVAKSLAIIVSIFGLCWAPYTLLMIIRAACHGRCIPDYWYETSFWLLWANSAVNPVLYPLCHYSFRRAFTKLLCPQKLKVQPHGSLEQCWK
In short: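 Membranes from CHO-A3 cells stably expressing full-length rat H3 receptor (10 μg protein/well) incubated 4 h at room temperature, protected from light, with ~1 nM [3H]-N-alpha-methylhistamine and compound (0.01 nM-30 μM) in 50 mM Tris HCl pH 7.4, 5 mM MgCl2, 0.1% BSA. Binding read by SPA; 10 μM clobenpropit defined non-specific binding.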

[3] = Human H3 binding, Table B, Examples 136-362, read-out: hum H3 binding Ki
[4] = Rat H3 binding, Table B, Examples 136-362, read-out: rat H3 binding Ki
[5] = Table C, human H3 binding, read-out: Human H3 Ki
[6] = Table C, rat H3 binding, read-out: Rat H3 Ki

T1 sequence (Q9Y5N1 whole entry): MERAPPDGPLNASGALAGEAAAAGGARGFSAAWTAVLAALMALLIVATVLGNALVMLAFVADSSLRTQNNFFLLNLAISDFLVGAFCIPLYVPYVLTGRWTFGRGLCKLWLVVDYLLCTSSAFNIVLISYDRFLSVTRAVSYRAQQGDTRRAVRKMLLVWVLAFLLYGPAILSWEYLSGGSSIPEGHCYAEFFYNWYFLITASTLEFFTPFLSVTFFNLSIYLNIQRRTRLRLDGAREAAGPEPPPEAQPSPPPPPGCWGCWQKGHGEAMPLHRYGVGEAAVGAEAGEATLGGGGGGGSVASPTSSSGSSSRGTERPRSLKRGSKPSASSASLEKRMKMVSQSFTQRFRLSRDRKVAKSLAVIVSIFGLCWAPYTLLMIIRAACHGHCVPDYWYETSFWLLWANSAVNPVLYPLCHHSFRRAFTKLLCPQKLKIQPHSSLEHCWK

| Structure (SMILES) | Ki [1, 3] [nM] | Ki [2, 4] [nM] | melting point [°C] | Ki [1, 5] [nM] | Ki [2, 6] [nM] |
| --- | --- | --- | --- | --- | --- |
| CC(C)NC(=O)c1ccc(-c2ccc3c(c2)CCC2(CCN(C4CCC4)CC2)O3)cc1F [Example 355] | < 200 | < 200 | 131 to 132 |  |  |
| CC(C)NC(=O)c1ccc(-c2ccc3c(c2)COC2(CCN(C4CCC4)CC2)O3)cc1F [Example 356] | < 200 | < 200 | 146.5 to 148 |  |  |
| CC(C)C(=O)N1CCC(COc2ccc3c(c2)CCC2(CCN(C4CCC4)CC2)O3)CC1 [Example 357] | < 200 | < 200 | 130 to 132 |  |  |
| O=C(C1CC1)N1CCC(COc2ccc3c(c2)CCC2(CCN(C4CCC4)CC2)O3)CC1 [Example 358] | < 200 | < 200 | 128 to 130 |  |  |
| COCCN(C)C(=O)c1c(F)cc(-c2ccc3c(c2)COC2(CCN(C4CCC4)CC2)O3)cc1F [Example 359] | < 200 | < 200 | 78 to 80 |  |  |
| COCCN(C)C(=O)c1c(F)cc(-c2ccc3c(c2)CCC2(CCN(C4CCC4)CC2)O3)cc1F [Example 360] | < 200 | < 200 | 100 to 102 |  |  |
| O=C(NC1CCOCC1)c1ccc(-c2ccc3c(c2)CCC2(CCN(C4CCC4)CC2)O3)cc1 [Example 361] | < 200 | < 200 | 205 to 207 |  |  |
| O=C(NC1CCOCC1)c1ccc(-c2ccc3c(c2)COC2(CCN(C4CCC4)CC2)O3)cc1 [Example 362] | < 200 | < 200 | 216 to 218 |  |  |
| c1ccc(N2CCN(c3ccc4c(c3)CCC3(CCN(C5CCC5)CC3)O4)CC2)cc1 [Example 363] |  |  | 173 to 175 | < 200 | < 200 |
| CN1CCN(c2ccc3c(c2)CCC2(CCN(C4CCC4)CC2)O3)CC1 [Example 364] |  |  | 125 to 126 | < 200 | < 200 |
| c1ccc(CN2CCN(c3ccc4c(c3)CCC3(CCN(C5CCC5)CC3)O4)CC2)cc1 [Example 365] |  |  | 292 to 293 | < 200 | < 200 |
| Cc1cccc(N2CCN(c3ccc4c(c3)CCC3(CCN(C5CCC5)CC3)O4)CC2)n1 [Example 366] |  |  | 159 to 161 | < 200 | < 200 |
| FC(F)(F)c1cccnc1N1CCN(c2ccc3c(c2)CCC2(CCN(C4CCC4)CC2)O3)CC1 [Example 367] |  |  | 138 to 139 | < 200 | < 200 |
| c1ccc(N2CCN(c3ccc4c(c3)CCC3(CCN(C5CCC5)CC3)O4)CC2)nc1 [Example 368] |  |  | 171 to 172 | < 200 | < 200 |

Now from value to compound:

| Ki [1, 3] [nM] | Ki [2, 4] [nM] | melting point [°C] | Ki [1, 5] [nM] | Ki [2, 6] [nM] | Structure (SMILES) |
| --- | --- | --- | --- | --- | --- |
|  |  | 156 to 157 | < 200 | < 200 | c1cnc(N2CCN(c3ccc4c(c3)CCC3(CCN(C5CCC5)CC3)O4)CC2)nc1 [Example 369] |
|  |  | 168 to 169 | < 200 | < 200 | c1cnc(N2CCN(c3ccc4c(c3)CCC3(CCN(C5CCC5)CC3)O4)CC2)cn1 [Example 370] |
|  |  | 168 to 169 | < 200 | < 200 | Clc1ccc(-c2ccc3c(c2)CCC2(CCN(C4CCC4)CC2)O3)cn1 [Example 371] |
|  |  | 212 to 213 | < 200 | < 200 | FC(F)(F)c1ccc(N2CCN(c3ccc4c(c3)CCC3(CCN(C5CCC5)CC3)O4)CC2)nc1 [Example 372] |
|  |  | 157 to 158 | < 200 | < 200 | COC(=O)N1CCN(c2ccc3c(c2)CCC2(CCN(C4CCC4)CC2)O3)CC1 [Example 373] |
|  |  | 182 to 184 | < 200 | < 200 | c1csc(N2CCN(c3ccc4c(c3)CCC3(CCN(C5CCC5)CC3)O4)CC2)n1 [Example 374] |
|  |  | 240 to 242 | < 200 | < 200 | CS(=O)(=O)N1CCN(c2ccc3c(c2)CCC2(CCN(C4CCC4)CC2)O3)CC1 [Example 375] |
